According to ChEMBL document CHEMBL4483862, “Open-source discovery of chemical leads for next-generation chemoprotective antimalarials” (2018):
pIC50: −log10 of the molar value.

Test system: Plasmodium berghei
Test: Luciferase/luciferin-expressing antifolate-resistant parasites were used to infect a culture of HepG2 cells that were pre-incubated with compounds. Infected hepatocytes emit light due to the luciferase reaction. Assay results are presented as the percent inhibition of light emission compared to control. […]
Assay type: functional
Details: sporozoite; for IC90: read-out: LUCIFERASE INFECTION ASSAY - IC90
[1] = read-out: LUCIFERASE INFECTION ASSAY - IC50

SMILES | pIC50 [1] | IC90 | further results
CNc1snc(C)c1C(=O)OCc1ccc([N+](=O)[O-])cc1 | < 5.00 | > 10 µM | 
O=C(Nc1ccnn1Cc1ccc(Cl)cc1Cl)c1cccc(NC(=O)c2cccs2)c1 |  | > 10 µM | pIC50 (HEPG2TOX_HILL_SLOPE 6.41, HEPG2TOX_R_SQUARED 0.384, PBLUC_HILL_SLOPE 10.4, PBLUC_R_SQUARED 0.292, read-out: LUCIFERASE INFECTION ASSAY - IC50): 5.06
Cc1ccc(S(=O)(=O)n2c3ccc(Cl)cc3c3nc(C)sc32)cc1 |  | > 8.76 µM | pIC50 (FFLUC_HILL_SLOPE 13.1, FFLUC_R_SQUARED 0.689, read-out: LUCIFERASE INFECTION ASSAY - IC50): < 5.06
N#C/C(=C1/SC=C(c2ccc(-c3ccccc3)cc2)N1c1ccccc1)c1nnc2n1CCCCC2 |  | 3.6 µM | pIC50 (HEPG2TOX_HILL_SLOPE 7.81, HEPG2TOX_R_SQUARED 0.359, PBLUC_HILL_SLOPE 26.3, PBLUC_R_SQUARED 0.88, read-out: LUCIFERASE INFECTION ASSAY - IC50): 5.48
FC(F)(F)c1cccc(-c2ccc3ncc(-c4ccc5c(c4)OCO5)n3n2)c1 | < 5.00 | > 10 µM | 
COCC(C)n1c(C)cc(C(=O)CSc2ncnc3sc(C)c(C)c23)c1C (stereo not drawn) | < 5.00 | > 10 µM | 
Nc1cc(Cl)ccc1Oc1ccc2ccccc2c1 | < 5.00 | > 10 µM | 
COc1ccc(Nc2nccc3[nH]c(-c4cccc(F)c4)cc23)cc1O |  | > 10 µM | pIC50 (PBLUC_HILL_SLOPE 4.51, PBLUC_R_SQUARED 0.135, read-out: LUCIFERASE INFECTION ASSAY - IC50): 5.03
CC(=O)OC1CCC2(C)C3CCC4(C)C(C5=CC(=O)OC5)CCC4(O)C3CCC2(O)C1 (stereo not drawn) |  | > 7.63 µM | pIC50 (HEPG2TOX_HILL_SLOPE 2.67, HEPG2TOX_R_SQUARED 0.733, PBLUC_HILL_SLOPE 2.15, PBLUC_R_SQUARED 0.208, read-out: LUCIFERASE INFECTION ASSAY - IC50): 5.52
CC(C)Oc1ccc(Nc2nccc3[nH]c(-c4ccccc4)cc23)cc1 |  | 4.19 µM | pIC50 (HEPG2TOX_HILL_SLOPE 24.7, HEPG2TOX_R_SQUARED 0.868, PBLUC_HILL_SLOPE 10.9, PBLUC_R_SQUARED 0.493, read-out: LUCIFERASE INFECTION ASSAY - IC50): 5.47
Cc1c(C(=O)O)sc(S(=O)(=O)N2CCN(C(=O)C(C)(C)C)CC2)c1C(=O)O | < 5.00 | > 10 µM | 
CSc1ccc(N2CC(C(=O)N(C)C(C)c3cccc([N+](=O)[O-])c3)CC2=O)cc1 (stereo not drawn) | < 5.00 | > 10 µM | 
Cc1ccccc1NC(=O)Nc1scc(S(=O)(=O)C(C)C)c1Cl | < 5.05 | > 8.85 µM | 
O=C(CSc1nnc(-c2ccncc2)[nH]1)NC1CCCc2ccccc21 (stereo not drawn) | < 5.00 | > 10 µM | 
Cc1ccnc(NC(c2ccccn2)c2ccc3cccnc3c2O)c1 (stereo not drawn) |  | > 9.64 µM | pIC50 (FFLUC_HILL_SLOPE 17.7, FFLUC_R_SQUARED 0.0708, HEPG2TOX_HILL_SLOPE 10.6, HEPG2TOX_R_SQUARED 0.571, PBLUC_HILL_SLOPE 38.3, PBLUC_R_SQUARED 0.424, read-out: LUCIFERASE INFECTION ASSAY - IC50): 5.03
N#CC1C(=N)Oc2c3c(c4ccccc4c2C1c1ccc(Cl)cc1)C(c1ccc(Cl)cc1)C(C#N)C(=N)O3 (stereo not drawn) |  | > 6.14 µM | pIC50 (FFLUC_HILL_SLOPE 2.7, FFLUC_R_SQUARED 0.81, HEPG2TOX_HILL_SLOPE 15, HEPG2TOX_R_SQUARED 0.458, PBLUC_HILL_SLOPE 19.3, PBLUC_R_SQUARED 0.191, read-out: LUCIFERASE INFECTION ASSAY - IC50): 5.24
COc1ccc(-c2c(C)nn3c(=O)cc(-c4ccccc4)[nH]c23)cc1 |  | 9.94 µM | pIC50 (HEPG2TOX_HILL_SLOPE 10.3, HEPG2TOX_R_SQUARED 0.705, PBLUC_HILL_SLOPE 12.5, PBLUC_R_SQUARED 0.547, read-out: LUCIFERASE INFECTION ASSAY - IC50): 5.08
COc1ccc(C(CNC(=O)c2ccccc2-c2ncc(-c3ccccc3)o2)N(C)C)cc1 (stereo not drawn) |  | > 10 µM | pIC50 (PBLUC_HILL_SLOPE 2.7, PBLUC_R_SQUARED 0.455, read-out: LUCIFERASE INFECTION ASSAY - IC50): 5.28
Fc1ccc(N2CCN(c3nc(CN4CCOCC4)nc4scc(-c5ccccc5)c34)CC2)cc1 |  | > 10 µM | pIC50 (HEPG2TOX_HILL_SLOPE 0.184, HEPG2TOX_R_SQUARED 0.0625, read-out: LUCIFERASE INFECTION ASSAY - IC50): < 5.00
O=C(NCCO)c1cccc(-c2ccc3ncc(-c4cccc(O)c4)n3n2)c1 |  | 9.64 µM | pIC50 (HEPG2TOX_HILL_SLOPE 14.1, HEPG2TOX_R_SQUARED 0.658, PBLUC_HILL_SLOPE 25.2, PBLUC_R_SQUARED 0.24, read-out: LUCIFERASE INFECTION ASSAY - IC50): 5.05
NC(c1csc(Nc2cc(NCc3ccco3)ncn2)n1)C1CCCCC1 (stereo not drawn) | < 5.07 | > 8.58 µM | 
O=C(CN1CCN(C(=O)/C=C/c2ccccc2[N+](=O)[O-])CC1)Nc1ccc(Cl)c(C(F)(F)F)c1 | < 5.00 | > 10 µM | 

SMILES | pIC50 [1] | IC90 | further results
O=C(CN1CCN(Cc2nc3ccccc3s2)CC1)NN1C(=O)NC2(CCCCC2)C1=O | < 5.00 | > 10 µM | 
COc1cc(OC)c(NC(=O)CN2CCC(c3c[nH]c4ccccc34)CC2)cc1Cl |  | > 10 µM | pIC50 (HEPG2TOX_HILL_SLOPE 7.32, HEPG2TOX_R_SQUARED 0.598, PBLUC_HILL_SLOPE 4.32, PBLUC_R_SQUARED 0.304, read-out: LUCIFERASE INFECTION ASSAY - IC50): 5.09
CC(=O)Nc1ccc(NC(=O)c2cc(C)n(C3CCCCC3)c2C)cc1 |  | > 10 µM | pIC50 (HEPG2TOX_HILL_SLOPE 0.564, HEPG2TOX_R_SQUARED 0.119, read-out: LUCIFERASE INFECTION ASSAY - IC50): < 5.00
Cc1cc(O)c(CN2CCN(C(=O)C34CC5CC(CC(C5)C3)C4)CC2)cc1C | < 5.00 | > 10 µM | 
CC(C)Oc1cccc(Nc2nccc3[nH]c(-c4ccccc4)cc23)c1 |  | 7.93 µM | pIC50 (HEPG2TOX_HILL_SLOPE 8.91, HEPG2TOX_R_SQUARED 0.686, PBLUC_HILL_SLOPE 1.92, PBLUC_R_SQUARED 0.493, read-out: LUCIFERASE INFECTION ASSAY - IC50): 5.60
c1ccc(-c2cn3c(-c4ccc5c(c4)OCO5)cnc3cn2)cc1 |  | > 10.5 µM | pIC50 (HEPG2TOX_HILL_SLOPE 0.346, HEPG2TOX_R_SQUARED 0.507, PBLUC_HILL_SLOPE 2.83, PBLUC_R_SQUARED 0.466, read-out: LUCIFERASE INFECTION ASSAY - IC50): 5.04
CC(C)(C)OC(=O)N1CCc2nc(NC(=O)c3ccc4nc[nH]c4c3)sc2C1 |  | > 10 µM | pIC50 (HEPG2TOX_HILL_SLOPE 6.67, HEPG2TOX_R_SQUARED 0.917, read-out: LUCIFERASE INFECTION ASSAY - IC50): < 5.00
Cn1nnnc1Sc1ccc([N+](=O)[O-])c2cnccc12 |  | 3.42 µM | pIC50 (HEPG2TOX_HILL_SLOPE 3.78, HEPG2TOX_R_SQUARED 0.957, PBLUC_HILL_SLOPE 12.7, PBLUC_R_SQUARED 0.328, read-out: LUCIFERASE INFECTION ASSAY - IC50): 5.54
C1CCN(Cc2nc(NC3CCN(C4CC4)CC3)c3c4c(sc3n2)CCCC4)CC1 | < 5.00 | > 10 µM | 
Cc1ccsc1C(=O)Nc1ccc(N2CCN(C)CC2)cn1 | 7.84 | 0.343 µM | 
COc1ccccc1CNC(=O)Nc1nc(C(N)Cc2ccc(C(F)(F)F)cc2)cs1 (stereo not drawn) |  | 7.12 µM | pIC50 (PBLUC_HILL_SLOPE 20.8, PBLUC_R_SQUARED 0.198, read-out: LUCIFERASE INFECTION ASSAY - IC50): 5.19
CC(Nc1ccc(C(F)(F)F)cc1[N+](=O)[O-])C(=O)Nc1ccccc1C(=O)Nc1cccc(Cl)c1 (stereo not drawn) | < 5.00 | > 10 µM | 
CCCCc1c(O)cc2n(c1=O)-c1ccc(Cl)cc1C2(C)C |  | > 10.4 µM | pIC50 (HEPG2TOX_HILL_SLOPE 9.65, HEPG2TOX_R_SQUARED 0.788, PBLUC_HILL_SLOPE 4.5, PBLUC_R_SQUARED 0.532, read-out: LUCIFERASE INFECTION ASSAY - IC50): 5.11
CC1CCc2ccccc2N1CC(=O)c1cccn1C (stereo not drawn) |  | > 10 µM | pIC50 (HEPG2TOX_HILL_SLOPE 5.07, HEPG2TOX_R_SQUARED 0.0101, read-out: LUCIFERASE INFECTION ASSAY - IC50): < 5.00
O=C(CSc1nnc(/C=C/c2ccc(F)cc2)[nH]1)N(c1ccccc1)C1CCCCC1 |  | 1.58 µM | pIC50 (PBLUC_HILL_SLOPE 1.52, PBLUC_R_SQUARED 0.866, read-out: LUCIFERASE INFECTION ASSAY - IC50): 6.43
COC(=O)c1occc1CSc1nc(NC(=O)c2ccccc2)c2c(C)c(C)oc2n1 | < 5.00 | > 10 µM | 
Cc1ccc(-n2c(C)cc(-c3csc(NC(=O)c4cccc(S(=O)(=O)N5CCc6ccccc65)c4)n3)c2C)cc1 |  | > 10 µM | pIC50 (FFLUC_HILL_SLOPE 15.8, FFLUC_R_SQUARED 0.357, read-out: LUCIFERASE INFECTION ASSAY - IC50): < 5.00
Cn1ccc2cc(-c3cn4c(-c5ccncc5)cnc4cn3)ccc21 | < 5.00 | > 10.1 µM | 
N#Cc1ccsc1NC(=O)COC(=O)c1c2c(nc3ccccc13)/C(=C/c1cccc([N+](=O)[O-])c1)CCC2 |  | > 10 µM | pIC50 (HEPG2TOX_HILL_SLOPE 2.36, HEPG2TOX_R_SQUARED 0.622, PBLUC_HILL_SLOPE 3.04, PBLUC_R_SQUARED 0.408, read-out: LUCIFERASE INFECTION ASSAY - IC50): 5.11
Cc1[nH]c2ccccc2c1C(=O)COc1ccc(N(C)S(=O)(=O)c2ccccc2F)cc1 |  | > 10 µM | pIC50 (PBLUC_HILL_SLOPE 1.92, PBLUC_R_SQUARED 0.479, read-out: LUCIFERASE INFECTION ASSAY - IC50): 5.28
Cc1nn(CC(=O)N2c3ccccc3NC(=O)CC2C)c(=O)c(C#N)c1C (stereo not drawn) | < 5.70 | > 2 µM | 
O=C(NCCC1=CCCCC1)Nc1ccc(OC(F)(F)F)cc1 |  | > 10.1 µM | pIC50 (PBLUC_HILL_SLOPE 77.5, PBLUC_R_SQUARED 0.175, read-out: LUCIFERASE INFECTION ASSAY - IC50): < 5.00
